This passage reports EC50 and IC50 results from patent US11976072B2, “Diacylglycerol kinase modulating compounds” (priority 2021, dated 2024).

As a reminder, the EC50 is the concentration at which the effect is half-maximal. Usually IC50 stands for the midpoint of a concentration-inhibition curve.

Each structure is given as a SMILES string.

Test [1] has as its system Jurkat NFκB-luciferase cells. Nature of the test: Jurkat NFκB-Luciferase Assay. The following applies: Homo sapiens; Jurkat NFκB-luciferase cells activated with anti-CD3 antibody (OKT3), 2.5 hrs at 37° C.; geometric mean; read-out: DGK NFKb Luciferase EC50. It counts as cell-based. In outline: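 Jurkat NFκB-luciferase reporter cells at 1 million cells/ml in RPMI with 10% FBS were added to antibody-coated, compound-containing wells. Luciferase activity read by One-Glo Ex luminescence 7 minutes after reagent addition.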

The next test deals with human DGKα (Homo sapiens, UniProt P23743). Nature of the test: DGKα Biochemical Activity Assay (ADP-Glo).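 Further: luminescent detection of ADP produced as DGKα phosphorylates DAG to phosphatidic acid, IC50 from four-parameter nonlinear curve fit.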 The following applies: recombinant DGKα 1 nM, 100 μM ATP, 18:1 DAG/POPS/octylglucoside micelles, 1 hour at 25° C.; geometric mean; read-out: HTBS DGKa 1X ATP KM IC50.
Chain of human DGKα (P23743 whole entry): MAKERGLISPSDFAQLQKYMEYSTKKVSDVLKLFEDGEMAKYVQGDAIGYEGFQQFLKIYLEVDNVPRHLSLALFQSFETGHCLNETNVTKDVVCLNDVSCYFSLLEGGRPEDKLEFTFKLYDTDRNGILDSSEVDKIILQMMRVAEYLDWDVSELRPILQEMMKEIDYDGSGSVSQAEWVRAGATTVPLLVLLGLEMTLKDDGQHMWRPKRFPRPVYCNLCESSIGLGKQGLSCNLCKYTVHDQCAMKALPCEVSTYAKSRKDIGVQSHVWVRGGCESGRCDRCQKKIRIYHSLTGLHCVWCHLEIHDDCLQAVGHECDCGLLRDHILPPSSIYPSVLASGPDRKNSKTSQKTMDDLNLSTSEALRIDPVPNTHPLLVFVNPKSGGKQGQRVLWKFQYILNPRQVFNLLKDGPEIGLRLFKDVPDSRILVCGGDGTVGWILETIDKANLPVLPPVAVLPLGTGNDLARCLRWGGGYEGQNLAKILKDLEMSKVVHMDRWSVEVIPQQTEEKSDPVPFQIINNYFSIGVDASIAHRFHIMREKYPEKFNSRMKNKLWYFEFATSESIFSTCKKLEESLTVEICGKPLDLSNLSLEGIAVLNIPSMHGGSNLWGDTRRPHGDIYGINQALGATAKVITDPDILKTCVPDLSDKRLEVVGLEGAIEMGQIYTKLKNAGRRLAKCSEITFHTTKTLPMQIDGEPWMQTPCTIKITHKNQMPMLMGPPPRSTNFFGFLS

Excerpt for human DGKα: Alternatively, the enzymatic activity of human DGKα was monitored in a biochemical assay in the presence or absence of compounds and using micelles containing 18:1 Diacylglycerol (DAG), 16:0-18:1 PS (POPS) and Octylglucoside as substrate. DGKα activity led to conversion of DAG and ATP to Phosphatidic Acid (PA) and ADP. Levels of ADP were monitored by bioluminescence using the ADP-Glo Kinase Assay (Promega) and were indicative of DGKα activity.
Recombinant DGKα (Carna Biosciences) in assay buffer (5 μL in 50 mM MOPS [3-(N-morpholino) propanesulfonic acid], pH 7.2; 0.0025% Triton X-100; 1 mM dithiothreitol; 5 mM MgCl2, 200 μM ATP) was added to the compound-containing plate and was incubated for 15 minutes at 25° C. […] The reaction mixture was incubated at 25° C. for 1 hour. ADP-Glo Reagent (10 μL, 10 mM Mg added) provided by the kit was added to each well and incubated at 25° C. for 40 minutes. Then, 20 μL of Kinase Detection Reagent was added and incubated at 25° C. for 40 minutes. Luciferase activity of each well was measured via luminescence on an Envision plate reader (PerkinElmer).
Least squares curve fittings were performed using a four-parameter variable slope nonlinear regression model. […] IC50 values from multiple experiments were averaged by geometric mean and the standard deviation was calculated.

As for `Cc1nnc2nc(N3CCOCc4c3ccnc4C#CC(C)(C)C(F)F)c3c(F)cccc3n12` [Example 136, 6-(4,4-difluoro-3,3-dimethylbut-1-yn-1-yl)-1-(6-fluoro-1-methyl-[1,2,4]triazolo[4,3-a]quinazolin-5-yl)-1,2,3,5-tetrahydropyrido[4,3-e][1,4]oxazepine], the EC50 in test [1] worked out at 13.9 nM. The IC50 at human DGKα stood at 11.1 nM.
In the same order, the values of `Cc1nnc2nc(N3CCOCc4c3ccnc4C#CC(C)(C)NC(=O)C3(C(F)(F)F)CC3)c3c(F)cccc3n12` [Example 137, N-(4-(1-(6-fluoro-1-methyl-[1,2,4]triazolo[4,3-a]quinazolin-5-yl)-1,2,3,5-tetrahydropyrido[4,3-e][1,4]oxazepin-6-yl)-2-methylbut-3-yn-2-yl)-1-(trifluoromethyl)cyclopropane-1-carboxamide] are 106 nM and 17.7 nM.
In the same order, the values of `Cc1nnc2nc(N3CCOCc4c(C#CC(C)(C)NC(=O)c5cn(C)nc5C(F)(F)F)cccc43)c3c(F)cccc3n12` [Example 138, N-(4-(1-(6-fluoro-1-methyl-[1,2,4]triazolo[4,3-a]quinazolin-5-yl)-1,2,3,5-tetrahydrobenzo[e][1,4]oxazepin-6-yl)-2-methylbut-3-yn-2-yl)-1-methyl-3-(trifluoromethyl)-1H-pyrazole-4-carboxamide] are 43.3 nM and 28.9 nM.
Take `Cc1nnc2nc(N3CCOCc4c(C#CC(C)(C)NC(=O)c5cn(C)nc5C(F)F)cccc43)c3c(F)cccc3n12` [Example 139, 3-(difluoromethyl)-N-[3-[1-(6-fluoro-1-methyl-[1,2,4]triazolo[4,3-a]quinazolin-5-yl)-3,5-dihydro-2H-4,1-benzoxazepin-6-yl]-1,1-dimethyl-prop-2-ynyl]-1-methyl-pyrazole-4-carboxamide]: the EC50 in test [1] turned out to be 41.3 nM. The IC50 on human DGKα came out at 72.6 nM.
In the same order, the values of `Cc1nnc2nc(N3CCOCc4c3ccnc4C#CC(C)(C)C(F)(F)F)c3c(F)cccc3n12` [Example 140, 1-(6-fluoro-1-methyl-[1,2,4]triazolo[4,3-a]quinazolin-5-yl)-6-(4,4,4-trifluoro-3,3-dimethylbut-1-yn-1-yl)-1,2,3,5-tetrahydropyrido[4,3-e][1,4]oxazepine] are 4.36 nM and 4.52 nM.
Regarding `Cc1nnc2nc(N3CCOCc4c3ccnc4C#CC3(C)CC3)c3c(F)cccc3n12` [Example 141, 1-(6-fluoro-1-methyl-[1,2,4]triazolo[4,3-a]quinazolin-5-yl)-6-((1-methylcyclopropyl)ethynyl)-1,2,3,5-tetrahydropyrido[4,3-e][1,4]oxazepine], the EC50 in test [1] was 5.11 nM. The IC50 on human DGKα was 4.76 nM.
In the same order, the values of `Cc1nnc2nc(N3CCOCc4c3ccnc4C#CC3(C(C)(F)F)CC3)c3c(F)cccc3n12` [Example 142, 6-((1-(1,1-difluoroethyl)cyclopropyl)ethynyl)-1-(6-fluoro-1-methyl-[1,2,4]triazolo[4,3-a]quinazolin-5-yl)-1,2,3,5-tetrahydropyrido[4,3-e][1,4]oxazepine] are 5.03 nM and 16.4 nM.
In the same order, the values of `Cc1nnc2nc(N3CCOCc4c3ccnc4C#CC3(C(F)(F)F)CC3)c3c(F)cccc3n12` [Example 143, 1-(6-fluoro-1-methyl-[1,2,4]triazolo[4,3-a]quinazolin-5-yl)-6-((1-(trifluoromethyl)cyclopropyl)ethynyl)-1,2,3,5-tetrahydropyrido[4,3-e][1,4]oxazepine] are 3.61 nM and 3.85 nM.
In the same order, the values of `Cc1nnc2nc(N3CCOCc4c(C#CC(C)(C)NC(=O)C(C)(C)C(F)(F)F)cccc43)c3c(F)cccc3n12` [Example 144, 3,3,3-trifluoro-N-(4-(1-(6-fluoro-1-methyl-[1,2,4]triazolo[4,3-a]quinazolin-5-yl)-1,2,3,5-tetrahydrobenzo[e][1,4]oxazepin-6-yl)-2-methylbut-3-yn-2-yl)-2,2-dimethylpropanamide] are 11.1 nM and 4.73 nM.
